“And” between values parts separate entries of the source, which are not always exact repeats. Equal values may be shown once.
What was measured:
Assay in all cases: Broth microdilution MIC, Example 7 (NCL812 and analogues)
[1] = system: VRE; type: cell-based, Enterococcus spp.
In short: (§1)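 Duplicates per isolate, repeated a third time if >one two-fold dilution apart. MIC50, MIC20 and range calculated per bacterial group.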

[2] = system: MRSA; type: cell-based, Staphylococcus aureus
In short: as §1

[3] = system: Escherichia coli; type: cell-based; conditions: E. coli, 24 hours
[4] = system: Pseudomonas aeruginosa; type: cell-based; conditions: P. aeruginosa, 24 hours
[5] = VRE 1, 24 hours, duplicate lines per compound
[6] = VRE 2, 24 hours, duplicate lines per compound
[7] = MRSA 1, 24 hours, duplicate lines per compound
[8] = MRSA 2, 24 hours, duplicate lines per compound

SMILES | MIC (μg/ml) at 24 hours, VRE 1 ([1]; VRE 1, 24 hours) [µg/mL] | MIC (μg/ml) at 24 hours, VRE 2 ([1]; VRE 2, 24 hours) [µg/mL] | MIC (μg/ml) at 24 hours, MRSA 1 ([2]; MRSA 1, 24 hours) [µg/mL] | MIC (μg/ml) at 24 hours, MRSA 2 ([2]; MRSA 2, 24 hours) [µg/mL] | MIC (μg/ml) at 24 hours, E. coli [3] [µg/mL] | MIC (μg/ml) at 24 hours, P. aeruginosa [4] [µg/mL] | MIC (μg/ml) at 24 hours, VRE 1 [1, 5] | MIC (μg/ml) at 24 hours, VRE 2 [1, 6] | MIC (μg/ml) at 24 hours, MRSA 1 [2, 7] | MIC (μg/ml) at 24 hours, MRSA 2 [2, 8] | MIC (μg/ml) at 24 hours, E. coli ([3]; duplicate lines per compound) [µg/mL] | MIC (μg/ml) at 24 hours, P. aeruginosa ([4]; duplicate lines per compound) [µg/mL]
Nc1nc(N/N=C/c2ccc(F)c(F)c2)cc(N/N=C/c2ccc(F)c(F)c2)n1 [NCL222] | >128 | >128 | >128 | >128 | >128 | >128 | – | – | – | – | – | –
CCOC(=O)N(/N=C/c1ccc(Cl)cc1)C(N)=N/N=C/c1ccc(Cl)cc1 [NCL224] | >128 | >128 | >128 | >128 | >128 | >128 | – | – | – | – | – | –
CCNC(=O)N(/N=C/c1ccc(Cl)cc1)C(N)=N/N=C/c1ccc(Cl)cc1 [NCL226] | >128 | >128 | >128 | >128 | >128 | >128 | – | – | – | – | – | –
CCCCCCNC(=O)N(N=Cc1ccc(Cl)cc1)C(N)=NN=Cc1ccc(Cl)cc1 [NCL228] | >128 | >128 | >128 | >128 | >128 | >128 | – | – | – | – | – | –
NC(=N/N=C/c1ccc(Cl)cc1)N(/N=C/c1ccc(Cl)cc1)C(=O)NCc1ccco1 [NCL229] | >128 | >128 | >128 | >128 | >128 | >128 | – | – | – | – | – | –
Cc1ccc(/C=N/NC(=N)N/N=C/c2ccc(C)cc2)cc1.Cl [NCL 038] | – | – | – | – | – | – | 8 µg/mL | 8 µg/mL | 8 µg/mL | 8 µg/mL | >128 | >128
COc1ccc(C=NNC(=N)NN=Cc2ccc(OC)c(OC)c2)cc1OC.Cl [NCL 115] | – | – | – | – | – | – | >128 µg/mL | >128 µg/mL | >128 µg/mL | >128 µg/mL | >128 | >128
Cl.N=C(NN=Cc1ccccc1-c1ccccc1)NN=Cc1ccccc1-c1ccccc1 [NCL 116] | – | – | – | – | – | – | >128 µg/mL | >128 µg/mL | >128 µg/mL | >128 µg/mL | >128 | >128
CC(=O)Nc1ccc(C=NNC(=N)NN=Cc2ccc(NC(C)=O)cc2)cc1.Cl [NCL 119] | – | – | – | – | – | – | >128 µg/mL | >128 µg/mL | >128 µg/mL | >128 µg/mL | >128 | >128
CCCc1ccc(C=NNC(=N)NN=Cc2ccc(CCC)cc2)cc1.Cl [NCL 121] | – | – | – | – | – | – | 8 µg/mL | 32 µg/mL and 64 µg/mL | 32 µg/mL | 32 µg/mL | >128 | >128
Cl.N=C(NN=Cc1ccc(F)c(F)c1)NN=Cc1ccc(F)c(F)c1 [NCL 123] | – | – | – | – | – | – | 4 µg/mL | 4 µg/mL | 16 µg/mL and 32 µg/mL | 4 µg/mL and 8 µg/mL | >128 | >128
Cl.N=C(NN=Cc1c(O)ccc2ccccc12)NN=Cc1c(O)ccc2ccccc12 [NCL 124] | – | – | – | – | – | – | >128 µg/mL | >128 µg/mL | >128 µg/mL | >128 µg/mL | >128 | >128
COc1ccc(C=NNC(=N)NN=Cc2ccc(OC)c(O)c2)cc1O.Cl [NCL 125] | – | – | – | – | – | – | >128 µg/mL | >128 µg/mL | >128 µg/mL | >128 µg/mL | >128 | >128

More lines, now with the values ahead:

MIC (μg/ml) at 24 hours, VRE 1 ([1]; VRE 1, 24 hours) [µg/mL] | MIC (μg/ml) at 24 hours, VRE 2 ([1]; VRE 2, 24 hours) [µg/mL] | MIC (μg/ml) at 24 hours, MRSA 1 ([2]; MRSA 1, 24 hours) [µg/mL] | MIC (μg/ml) at 24 hours, MRSA 2 ([2]; MRSA 2, 24 hours) [µg/mL] | MIC (μg/ml) at 24 hours, E. coli [3] [µg/mL] | MIC (μg/ml) at 24 hours, P. aeruginosa [4] [µg/mL] | MIC (μg/ml) at 24 hours, VRE 1 [1, 5] | MIC (μg/ml) at 24 hours, VRE 2 [1, 6] | MIC (μg/ml) at 24 hours, MRSA 1 [2, 7] | MIC (μg/ml) at 24 hours, MRSA 2 [2, 8] | MIC (μg/ml) at 24 hours, E. coli ([3]; duplicate lines per compound) [µg/mL] | MIC (μg/ml) at 24 hours, P. aeruginosa ([4]; duplicate lines per compound) [µg/mL] | SMILES
>128 | >128 | >128 | >128 | >128 | >128 | – | – | – | – | – | – | CC(=O)Nc1ccc(/C=N/Nc2cc(N/N=C/c3ccc(NC(C)=O)cc3)nc(N)n2)cc1 [NCL223]
>128 | >128 | >128 | >128 | >128 | >128 | – | – | – | – | – | – | CC(C)COC(=O)N(N=Cc1ccc(Cl)cc1)C(N)=NN=Cc1ccc(Cl)cc1 [NCL225]
>128 | >128 | >128 | >128 | >128 | >128 | – | – | – | – | – | – | N=C(N/N=C/c1ccc(Cl)cc1)N(/N=C/c1ccc(Cl)cc1)C(=O)NCc1ccccc1 [NCL227]
>128 | >128 | >128 | >128 | >128 | >128 | – | – | – | – | – | – | COc1ccc(/C=N/Nc2cc(N/N=C/c3ccc(OC)cc3)nc(N)n2)cc1 [NCL230]
– | – | – | – | – | – | 64 µg/mL | 64 µg/mL | 64 µg/mL | 128 µg/mL | >128 | >128 | COc1cc(/C=N/NC(=N)N/N=C/c2ccc(O)c(OC)c2)ccc1O.Cl [NCL 117]
– | – | – | – | – | – | >128 µg/mL | >128 µg/mL | >128 µg/mL | >128 µg/mL | >128 | >128 | Cl.N=C(N/N=C/c1cc(F)ccc1F)N/N=C/c1cc(F)ccc1F [NCL 118]
– | – | – | – | – | – | 2 µg/mL | 8 µg/mL | 8 µg/mL | 4 µg/mL and 8 µg/mL | >128 | >128 | CC(C)c1ccc(/C=N/NC(=N)N/N=C/c2ccc(C(C)C)cc2)cc1.Cl [NCL 120]
– | – | – | – | – | – | >128 µg/mL | >128 µg/mL | >128 µg/mL | >128 µg/mL | >128 | >128 | Cl.N=C(NN=Cc1ccc(O)c([N+](=O)[O-])c1)NN=Cc1ccc(O)c([N+](=O)[O-])c1 [NCL 122]
– | – | – | – | – | – | 4 µg/mL and 8 µg/mL | >128 µg/mL | >128 µg/mL | >128 µg/mL | >128 | >128 | C#Cc1cccc(C=NNC(=N)NN=Cc2cccc(C#C)c2)c1.Cl [NCL 126]
– | – | – | – | – | – | >128 µg/mL | >128 µg/mL | >128 µg/mL | >128 µg/mL | >128 | >128 | Cl.N=C(N/N=C/c1ccc(Cl)cc1Cl)N/N=C/c1ccc(Cl)cc1Cl [NCL 127]
– | – | – | – | – | – | >128 µg/mL | >128 µg/mL | >128 µg/mL | >128 µg/mL | >128 | >128 | Cl.N=C(N/N=C/c1c(F)c(F)c(F)c(F)c1F)N/N=C/c1c(F)c(F)c(F)c(F)c1F [NCL 128]
– | – | – | – | – | – | >128 µg/mL | >128 µg/mL | >128 µg/mL | >128 µg/mL | >128 | >128 | Cl.N=C(N/N=C/c1ccccc1Br)N/N=C/c1ccccc1Br [NCL 129]
– | – | – | – | – | – | >128 µg/mL | >128 µg/mL | >128 µg/mL | >128 µg/mL | >128 | >128 | COc1cc(C=NNC(=N)NN=Cc2cc(Br)c(OC)c(OC)c2)cc(Br)c1OC.Cl [NCL 130]
– | – | – | – | – | – | 4 µg/mL | >128 µg/mL | >128 µg/mL | >128 µg/mL | >128 | >128 | Cl.N=C(NN=Cc1cccc(Br)c1)NN=Cc1cccc(Br)c1 [NCL 131]

Source: US10253002B2, “Compounds and methods of treating infections” (Neoculi Pty Ltd., priority 2013, dated 2019)
